The results in this text go back to PubChem BioAssay AID588719 (Southern Research Specialized Biocontainment Screening …, 2011).

This experiment concerns Vero 76 cells viability, cytotoxicity counter-screen. The experiment is described as follows: Vero 76 cell cytotoxicity, dose response, cytotoxicity control for VEEV inhibitor project (AID 588719).

For the molecule `COc1cc(/C=C/C(=O)/C=C(O)/C=C/c2ccc(O)c(OC)c2)ccc1O`, the CC50 was 19.9 µM.
